In US11771679B2, “Composition containing hesperetin and synergistic hypoglycemic application thereof” (ZHENGZHOU FRUIT RESEARCH INSTITUTE, CHINESE ACADEMY OF …, priority 2021, dated 2023) one finds inhibition and Inhibition rate data, which are given here for 25 compounds.

The assay deals with T1, α-glucosidase (Saccharomyces cerevisiae, UniProt P53341).
T1 construct: purchased Sigma
The assay is described as follows: α-glucosidase inhibition test (pNPG substrate, OD 405 nm); CI calculated with CompuSyn (Chou-Talalay). The conditions noted are these: for Inhibition rate: single compound. Format: biochemical. From the text:
[drawing 3] • α-glucosidase (coming from Saccharomyces cerevisiae, Sigma); • 4-nitrophenyl-α-D-glucopyranoside (pNPG, TOKYO Chemica Industry Co., LTD); • acarbose (Acarbose, TOKYO Chemica Industry Co., LTD); • hesperetin, galangin, and formononetin (BEIJING Solarbio Technology Co., LTD); • Millipore Simplicity water purification system (Millipore, France); • sodium phosphate salt buffer solution (pH 6.8, 0.1 mol L-1); and • microplate reader TECAN infinite M200 PRO (Teacan Group Ltd., Swizerland).
an α-glucosidase solution with a concentration being 0.25 U/mL and a substrate p-nitrophenyl-α-D-glucopyranoside (pNPG) solution with a concentration being 5 mmol/mL were prepared by using a PBS buffer solution (0.1 mol/L pH 6.8).
100 μL of sample solution was added to each hole, then 40 μL of α-glucosidase (0.25 U/mL) was added, reacted for 15 min at 37° C., and then 60 μL of substrate p-nitrophenyl-α-D-glucopyranoside (5 mmol/mL) was added; and after placed at 37° C. to react for 15 min, a microplate reader measured at a wave length of 405 nm.
CI values are calculated according to CompuSyn software to evaluate synergistic effect among drugs.

T1 sequence (P53341 whole entry): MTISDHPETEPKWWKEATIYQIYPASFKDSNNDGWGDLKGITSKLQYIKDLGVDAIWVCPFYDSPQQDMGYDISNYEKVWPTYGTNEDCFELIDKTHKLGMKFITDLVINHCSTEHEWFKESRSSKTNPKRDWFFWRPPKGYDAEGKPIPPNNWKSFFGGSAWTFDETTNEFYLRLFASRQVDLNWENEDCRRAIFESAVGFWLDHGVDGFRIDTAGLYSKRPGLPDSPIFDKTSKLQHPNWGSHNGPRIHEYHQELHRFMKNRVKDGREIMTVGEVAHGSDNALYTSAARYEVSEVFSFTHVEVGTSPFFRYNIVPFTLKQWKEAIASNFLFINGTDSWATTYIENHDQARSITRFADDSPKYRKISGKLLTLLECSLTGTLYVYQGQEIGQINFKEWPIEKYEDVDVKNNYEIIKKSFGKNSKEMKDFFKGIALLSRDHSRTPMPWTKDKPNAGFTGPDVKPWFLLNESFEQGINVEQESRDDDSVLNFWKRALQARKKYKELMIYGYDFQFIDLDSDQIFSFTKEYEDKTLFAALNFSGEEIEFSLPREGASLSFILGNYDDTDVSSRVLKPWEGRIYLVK

As to `COc1c(-c2ccc(O)c(O)c2)oc2cc(O)cc(O)c2c1=O` [3-O-methyl quercetin], the inhibition (as a rule, how much of the control response was suppressed) at 2 µg/mL (read-out: Inhibition rate) is 46.2 ± 1.2%.
As for `O=c1cc(-c2ccc(O)cc2)oc2cc(O)cc(O)c12` [Apigenin], under “read-out: Inhibition rate”, the inhibition at 6 µg/mL is 56.1 ± 4.4%.
Take `O=c1cc(-c2ccccc2)oc2cc(O)c(O)c(O)c12` [Baicalein]: the inhibition at 10 µg/mL (read-out: Inhibition rate) was 38.8 ± 3.3%.
For the compound `COc1ccc(-c2coc3cc(O)cc(O)c3c2=O)cc1` [Biochanin A], the inhibition at 0.7 µg/mL (read-out: Inhibition rate) is 38.5 ± 2.1%.
`COc1ccc(-c2coc3cc(O)ccc3c2=O)cc1O` [Calycosin]: the inhibition at 6 µg/mL (read-out: Inhibition rate) was 56.6 ± 4.3%.
Turning to `Oc1cc(O)c2cc(O)c(-c3ccc(O)c(O)c3)[o+]c2c1` [Cyanidin], under “read-out: Inhibition rate”, the inhibition at 0.7 µg/mL was 47.5 ± 1.4%.
Consider `O=c1c(-c2ccc(O)cc2)coc2cc(O)ccc12` [Daidzein], for which the inhibition at 8 µg/mL (read-out: Inhibition rate) is 44.5 ± 2.5%.
Take `Oc1cc(O)c2cc(O)c(-c3cc(O)c(O)c(O)c3)[o+]c2c1` [Delphinidin]: for the setting “read-out: Inhibition rate”, the inhibition at 1 µg/mL was 50.2 ± 4.3%.
With `O=C1c2c(O)cc(O)cc2OC(c2ccc(O)cc2O)C1O` (stereo not shown) [Dihydromorin], the inhibition at 15 µg/mL (read-out: Inhibition rate) was 25.7 ± 4.7%.
As for `O=c1c(O)c(-c2ccc(O)c(O)c2)oc2cc(O)ccc12` [Fisetin], the inhibition at 6 µg/mL (read-out: Inhibition rate) was 46.5 ± 2.3%.
Regarding `COc1ccc(-c2coc3cc(O)ccc3c2=O)cc1` [Formononetin], under “read-out: Inhibition rate”, the inhibition at 20 µg/mL was 60.1 ± 5.3% and the inhibition at 30 µg/mL is 65.2 ± 4.3%.
As to `O=c1c(O)c(-c2ccccc2)oc2cc(O)cc(O)c12` [Galangin], where the note is “read-out: Inhibition rate”, the inhibition at 100 µg/mL is 56.3 ± 4.5% and the inhibition at 150 µg/mL was 84.4 ± 7.5%.
In the case of `COc1cc(O)c2c(=O)cc(-c3ccc(O)cc3)oc2c1` [Genkwanin], the inhibition at 35 µg/mL (read-out: Inhibition rate) was 70.1 ± 5.5%.
Turning to `COc1ccc(C2CC(=O)c3c(O)cc(O)cc3O2)cc1O` (stereo not shown) [Hesperetin], for the setting “read-out: Inhibition rate”, the inhibition at 30 µg/mL was 45.2 ± 3.2% and the inhibition at 50 µg/mL was 63.4 ± 4.2%.
As for `O=C(/C=C/c1ccc(O)cc1)c1ccc(O)cc1O` [Isoliquiritigenin], under “read-out: Inhibition rate”, the inhibition at 4 µg/mL was 35.2 ± 2.5%.
As for `COc1ccc(-c2oc3cc(O)cc(O)c3c(=O)c2O)cc1` [Kaempferide], the inhibition at 5 µg/mL (read-out: Inhibition rate) is 30.8 ± 1.3%.
As for `O=c1cc(-c2ccc(O)c(O)c2)oc2cc(O)cc(O)c12` [Luteolin], the inhibition at 1 µg/mL (read-out: Inhibition rate) was 45.5 ± 2.7%.
`O=c1c(O)c(-c2ccc(O)cc2O)oc2cc(O)cc(O)c12` [Morin]: where the note is “read-out: Inhibition rate”, the inhibition at 1 µg/mL was 41.2 ± 2.7%.
Regarding `O=c1c(O)c(-c2cc(O)c(O)c(O)c2)oc2cc(O)cc(O)c12` [Myricetin], the inhibition at 1 µg/mL (read-out: Inhibition rate) was 41.2 ± 1.5%.
In the case of `O=C1C[C@@H](c2ccc(O)cc2)Oc2cc(O)cc(O)c21` [Naringenin], the inhibition at 25 µg/mL (read-out: Inhibition rate) was 50.5 ± 4.3%.
For `O=C(CCc1ccc(O)cc1)c1c(O)cc(O)cc1O` [Phloretin], the inhibition at 8 µg/mL (read-out: Inhibition rate) is 46.3 ± 2.7%.
Consider `COc1c(-c2ccc(O)c(O)c2)oc2cc(O[C@@H]3OC(C)[C@@H](O)C(O)C3O)cc(O)c2c1=O` (stereo partly shown) [Vincetoxicoside], for which the inhibition at 12 µg/mL (read-out: Inhibition rate) is 48.7 ± 2.1%.
In the case of `C[C@H]1O[C@H](O[C@H]2[C@H](O)[C@@H](O)[C@@H](O[C@H]3[C@H](O)[C@@H](O)C(O)O[C@@H]3CO)O[C@@H]2CO)[C@H](O)[C@@H](O)[C@@H]1N[C@H]1C=C(CO)[C@@H](O)[C@H](O)[C@H]1O` (stereo partly shown) [acarbose], under “read-out: Inhibition rate”, the inhibition at 350 µg/mL is 46.2 ± 3.5%.
On to Chrysin, for which, under “100 μg/mL”, the Inhibition rate is listed as 51.2 ± 5.5%.
Vitexin: for the setting “10 μg/mL”, the Inhibition rate is 29.2 ± 1.4%.
